Measurements reported in PubChem BioAssay (NCI).
Several values for one entry are separate records, joined by “and”; a condition that tells them apart may be missing. Identical values can stand only once.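 Following 48 hours of exposure in 96-well plates, responses at five concentrations were used to interpolate endpoints linearly. GI50: concentration for 50% inhibition of growth. Definition used: TGI = concentration required for complete inhibition of growth.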

Assays:
Assay in all cases: DTP human tumour cell line panel, 48 h
KM12 colon = system: KM12 colon
BT-549 breast = system: BT-549 breast
OVCAR-4 ovarian = system: OVCAR-4 ovarian
SK-OV-3 ovarian = system: SK-OV-3 ovarian
SF-268 CNS = system: SF-268 CNS
OVCAR-3 ovarian = system: OVCAR-3 ovarian
LOX IMVI melanoma = system: LOX IMVI melanoma
NCI-H460 lung = system: NCI-H460 lung
HCT-116 colon = system: HCT-116 colon
HOP-62 NSCLC = system: HOP-62 NSCLC

Row | SMILES | GI50 (KM12 colon) | TGI (KM12 colon) | GI50 (BT-549 breast) [µM] | TGI (BT-549 breast) [µM] | GI50 (OVCAR-4 ovarian) | TGI (OVCAR-4 ovarian) [µM] | GI50 (SK-OV-3 ovarian) [µM] | TGI (SK-OV-3 ovarian) [µM] | GI50 (SF-268 CNS) [µM] | TGI (SF-268 CNS) [µM] | GI50 (OVCAR-3 ovarian) [µM] | TGI (OVCAR-3 ovarian) | GI50 (LOX IMVI melanoma) | TGI (LOX IMVI melanoma) | GI50 (NCI-H460 lung) [µM] | TGI (NCI-H460 lung) [µM] | GI50 (HCT-116 colon) | TGI (HCT-116 colon) [µM] | GI50 (HOP-62 NSCLC) | TGI (HOP-62 NSCLC) [µM]
1 | Cc1ccc(/C=C2\CCOC2=O)cc1 | > 100 µM | > 100 µM | > 100 | > 100 | > 100 µM | > 100 | > 100 | > 100 | 60.2 | > 100 | > 100 | > 100 µM | > 100 µM | > 100 µM | > 100 | > 100 | > 100 µM | > 100 | > 100 µM | > 100
2 | COc1ccc(/C=C(/C(=O)N2CCNCC2)c2cc(OC)c(OC)c(OC)c2)cc1O | 3.18 µM | > 100 µM | 4.22 | 48.4 | 8.15 µM | > 100 | 4.18 | > 100 | 7.23 | > 100 | 2.45 | 7.1 µM | 5.21 µM | > 100 µM | 3.42 | > 100 | 3.45 µM | > 100 | 5.08 µM | > 100
3 | Cc1ccccc1NC(=O)NC(CC(N)=O)c1ccc2c(c1)nc(-c1cccc(Oc3ccc(C(C)(C)C)cc3)c1)n2CCCN1CCCCC1C (stereo unspecified) | 2.34 µM | 5.63 µM | 13.3 | 26.1 | 3.07 µM | 8.39 | 10.9 | 23.9 | 1.88 | 3.88 | 2.57 | 6.35 µM | 1.67 µM | 3.14 µM | 2 | 3.87 | 1.71 µM | 3.16 | 1.97 µM | 4.46
4 | Cn1c(=O)c(F)c(Nc2ccc(I)cc2F)c2c(=O)n(C[C@@H](O)CO)cnc21 | 0.0237 µM and 0.0319 µM | 39.1 µM and > 4.11 µM | 12.6 | > 95.8 | 6.33 µM and 1.21 µM | > 100 | 15.1 | > 68.8 | 10.4 | > 82.5 | 13.6 | 40.4 µM and > 3.85 µM | 0.0469 µM and 0.0198 µM | 12.5 µM and > 3.38 µM | – | > 100 | < 0.01 µM and 0.00832 µM | 11.5 | 0.0545 µM and 0.0151 µM | > 69.7
5 | O=C1NC(=NCc2ccccn2)S/C1=C\c1ccc2ncccc2c1 | 13.2 µM | > 25 µM | 9.23 | > 25 | 9.74 µM | 24.7 | 8.59 | > 23.5 | 8.5 | > 25 | 12.6 | > 25 µM | 13.1 µM | > 25 µM | 9.07 | > 25 | 8.86 µM | > 25 | 13.2 µM | > 25
6 | CSC(=S)N/N=C(\C)c1ccccn1 | 0.346 µM | 14.3 µM | 0.44 | 14.8 | < 0.0169 µM | 10.6 | 0.589 | 15.2 | 0.349 | 14.5 | < 0.01 | – | 0.206 µM | 12.6 µM | 0.289 | 1.23 | < 0.01 µM | 5.28 | 0.366 µM | 5.19
7 | O=C(Nc1ccccc1Cl)c1ccc(NC2=C(Cl)C(=O)N(Cc3ccccc3)C2=O)cc1 | 32.7 µM | > 100 µM | 43 | > 100 | 78.9 µM | > 100 | > 100 | > 100 | 23.3 | 55.1 | 18.7 | 36.6 µM | 17.9 µM | 32.6 µM | 33.3 | > 100 | 21.4 µM | 47.5 | 41.2 µM | > 100
8 | Cc1ccc(Cl)cc1Nc1nc(C(F)(F)F)ccc1C(=O)Oc1ccc(Cl)cc1 | 21.6 µM | 63.6 µM | 15.6 | 36.3 | 11.1 µM | 44.3 | 12.2 | 37.4 | 14 | 38.7 | 2.55 | 8.81 µM | 5.21 µM | 21.9 µM | 16.4 | 54.2 | 4.45 µM | 20 | 8.88 µM | 23.1
9 | CCCCCCCCSC1=CC(=O)C(OC)=C(OC)C1=O | 3.43 µM | 13.7 µM | 7 | 19.4 | 1.27 µM | 3.14 | 17.6 | 36.4 | 3.75 | 14.7 | 1.45 | 2.85 µM | 0.767 µM | 2.11 µM | 6.29 | 19.8 | 1.19 µM | 2.54 | 11.1 µM | 24.4
10 | O=C1c2cccc3cccc(c23)C(=O)N1CCCCOc1ccc(-c2nc3ccc(N4CCOCC4)cc3[nH]2)cc1 | 2.88 µM | – | 1.49 | 3.15 | 1.8 µM | 4.08 | 31.2 | > 54 | 7.35 | > 69.6 | 5.05 | 11.2 µM | 2.11 µM | 4.53 µM | 3.42 | 16.1 | 1.76 µM | 3.32 | 2.47 µM | 5.9
11 | CC(=O)Nc1ccc(C(=O)N[C@@H]2C(=O)N3[C@@H]2SC(C)(C)[C@@H]3C(=O)O)cn1 | – | > 100 µM | – | > 100 | – | > 100 | – | > 100 | – | > 100 | – | > 100 µM | – | > 100 µM | – | > 100 | – | > 100 | – | > 100
12 | COc1cc2c(/C=C3\C(=O)Nc4ccc(Br)cc43)c(Cl)n(C)c2cc1C | 0.387 µM | 1.88 µM | 1.49 | 4.77 | 4.12 µM | 24.8 | 3.87 | 18.6 | 1.31 | 8 | 1.56 | 3.56 µM | 1.44 µM | 6.7 µM | 0.916 | 4.69 | 1.61 µM | 7.17 | 0.813 µM | 4.47
13 | NCCOc1ccccn1 | – | > 100 µM | – | > 100 | – | > 100 | – | > 100 | – | > 100 | – | > 100 µM | – | > 100 µM | – | > 100 | – | > 100 | – | > 100
14 | N#Cc1c2ccccc2c2nnc3cc(Cl)c(Cl)cc3n12 | > 100 µM | > 100 µM | 60.9 | > 100 | 40.8 µM | > 100 | > 100 | > 100 | 27.7 | 83.3 | 33.1 | 95.9 µM | 59.3 µM | > 100 µM | 54.2 | > 100 | 34.2 µM | > 100 | 31.2 µM | > 100
15 | CC(C)[C@]12O[C@H]1[C@@H]1O[C@]13[C@]1(O[C@H]1C[C@H]1c4c(C(=O)c5ccccc5)oc(OC(=O)c5ccccc5)c4CC[C@@]13C)[C@@H]2O | 0.226 µM | 3.78 µM | 0.0188 | 0.0951 | 0.0313 µM | > 88.4 | 0.0351 | > 100 | 0.0338 | 1.6 | 0.0244 | 0.154 µM | 0.0144 µM | 14.8 µM | – | 11.4 | 0.0142 µM | > 100 | 0.0278 µM | 0.735
16 | O=[N+]([O-])c1ccc2[nH]cc(-c3c4ccccc4cc4[nH]c5ccc([N+](=O)[O-])cc5c34)c2c1 | 1.78 µM | 3.37 µM | 2.29 | 5.94 | 1.57 µM | 3.02 | 3.38 | 10.8 | 2.66 | 9.57 | 2.57 | 7.32 µM | 1.92 µM | 4.14 µM | 2.72 | 7.7 | 2.16 µM | 5 | 2.54 µM | 7.25
17 | N#C/C(=C/N1CCN(C(=O)c2ccco2)C1=S)C(N)=O | 7.51 µM | 98.2 µM | 22.5 | 55.9 | 18.5 µM | 73.8 | 42.6 | > 100 | 11.7 | 36.4 | 19 | 59.8 µM | 2.5 µM | 7.69 µM | 3.99 | 50.7 | 21.2 µM | 92.9 | 25.6 µM | 66.9
18 | Cc1ccc(/C=C(\C#N)n2nnc3cc(F)c(F)cc32)cc1 | 2.65 µM | 15.4 µM | 1.95 | 6.81 | 2.58 µM | 15.4 | 4.49 | 33.7 | 3.63 | 20.9 | 1.47 | 6.08 µM | 2.88 µM | 11.4 µM | 3.52 | 11.3 | 1.69 µM | 7.79 | 1.52 µM | 3.64
19 | C=C1C(=O)O[C@H]2[C@H]1CC/C(Cn1cc(CCC)nn1)=C\CC[C@@]1(C)O[C@@H]21 | 17.6 µM | 34.1 µM | 14.2 | 28.6 | 9.46 µM | 22.7 | 26 | 68.5 | 13.7 | 28.4 | 3.96 | 14 µM | 3.9 µM | 16.9 µM | 21.2 | 41.5 | 3.98 µM | 14.4 | 14.1 µM | 27.8
20 | O=Cc1ccc(C(F)(F)F)cc1.[C-]#[O+].[C-]#[O+].[C-]#[O+].[Cr] | 24.6 µM | 91.5 µM | 40.1 | > 100 | 27.1 µM | > 100 | 31.3 | > 100 | 21 | > 100 | 25.4 | > 100 µM | 26.2 µM | > 100 µM | 13.3 | 40.3 | 16.7 µM | 38.7 | 46.6 µM | > 100
21 | O=C1NC(=NCCc2ccccc2Cl)S/C1=C\c1ccc2ncccc2c1 | 2.5 µM | > 25 µM | 4.94 | > 22 | 4.26 µM | > 14.9 | 5.94 | > 20.4 | 4.68 | > 25 | 5.31 | 19.8 µM | 1.57 µM | > 25 µM | 6.34 | > 25 | 0.936 µM | > 25 | 6.26 µM | > 25
22 | COc1ccc(C(=O)Nc2cccc(C3CC(=O)c4c(cc(OC)c(OC)c4OC)O3)c2)cc1 (stereo unspecified) | 1.08 µM | 14.7 µM | 1.01 | 7.81 | 3.11 µM | 30.7 | 3.63 | 98.4 | 2.29 | > 100 | 0.337 | 39.7 µM | 0.84 µM | 52.4 µM | 2.21 | 11.7 | 0.381 µM | > 100 | 1.72 µM | > 100
23 | Cc1c2c(nn1-c1ccc(S/N=C3\SCC(=O)CN3c3ccccc3)cc1)-c1ccccc1CC2 | 46.5 µM | > 50 µM | 11.1 | 34.5 | 37.6 µM | > 50 | 43.3 | > 50 | 20.2 | > 50 | > 50 | > 50 µM | 5.59 µM | 34.2 µM | 15.2 | > 50 | 6.5 µM | 15.9 | 12.7 µM | 47.7
24 | O=Nc1c(-c2cccc([N+](=O)[O-])c2)nc2ncccn12 | 12.4 µM | 26.8 µM | 15.8 | 32.1 | 12 µM | 55.2 | 22.8 | 59.6 | 18.3 | 66.8 | 3.22 | 12.5 µM | 11.6 µM | 27 µM | 17.8 | 54.8 | 3.03 µM | 13.3 | 20.9 µM | 48.7
25 | Nc1nc(Cl)nc2c1ncn2C1O[C@H](CO)[C@@H](O)[C@@H]1F (stereo partly specified) | 29.7 µM | > 100 µM | 0.091 | 0.702 | > 100 µM | > 100 | 0.761 | > 100 | 0.229 | > 54 | > 100 | > 100 µM | 0.468 µM | > 100 µM | 0.37 | > 100 | 0.13 µM | > 100 | 0.239 µM | 20.6
26 | CCOC1NC(=O)Oc2ccccc21 (stereo unspecified) | – | > 100 µM | – | > 100 | – | > 100 | – | > 100 | – | > 100 | – | > 100 µM | – | > 100 µM | – | > 100 | – | > 100 | – | > 100
